The nature of this data set: Hygroscopicity analysis (DVS) of the valsartan crystal forms. The class given is physicochemical. Particulars: new crystal forms; result in words only; DVS comparison (Figure 11) not in text.

Molecules are shown by their SMILES.

1 compound from patent publication CN103739564A, “缬沙坦的多晶型及其制备方法” (Shanghai Institute of Materia Medica of CAS, priority 2012, dated 2013) can be followed below.

Regarding `CCCCC(=O)N(Cc1ccc(-c2ccccc2-c2nnn[nH]2)cc1)[C@H](C(=O)O)C(C)C` [晶型E, (S)-N-(1-戊酰基)-N-[[2’-(1H-四唑-5-基)[1,1’-联苯]-4-基]甲基]-L-缬氨酸], the hygroscopicity entry was “吸湿性小”.
